# Experimental data published in PubChem BioAssay AID2060494 (Molecular Pharmacology Branch, DTP, NCI, 2025).
# System: 435261-313-R-J1-PDC complex spheroid viability
# Assay: Anticancer human tumor 435261-313-R-J1-PDC patient-derived colon adenocarcinoma cell line growth inhibition [GQUAD]
# Settings: for IC50: curve of first compound; for viability, T/C: stronger effect = lower value
# From the text: DNA G-quadruplex Stabilizer Agents in Combinations in Complex Spheroids
# A high-throughput screen of multi-cell type tumor spheroids was designed to identify active combinations of DNA G-quadruplex stabilizer agents and targeted small molecules. Complex spheroids include a stromal component modeled by human endothelial cells (HUVEC) and fibroblasts modeled by human mesenchymal stem cells (MSCs). The concentration ranges selected for each drug and investigational agent were based upon clinically achievable concentrations if the clinical Cmax of the agent was known.
# Compounds. The drugs and investigational agents: pidnarulex (CX-5461; NSC782164), APTO-253 (NSC789042), BRACO-19 (NSC847499), peposertib (NSC802822), ceralasertib (NSC780249), elimusertib (NSC800525), camonsertib (NSC841442), AZD-1390 (NSC803789), olaparib (NSC753686), talazoparib (NSC767125), ART-558 (NSC835418), sotorasib (NSC818433), MRTX-1133 (NSC836407), SN-38 (NSC673596), topotecan (NSC609699), etoposide (NSC141540), doxorubicin (NSC123127), gemcitabine (NSC613327), 5-fluorouracil (NSC19893), paclitaxel (NSC125973), vemurafenib (NSC761431), panobinostat (NSC761190), R-306465 (JNJ-16241199; NSC773264), adavosertib (NSC754352), TP-3654 (NSC805149), carboplatin (NSC241240), KSQ-4279 (NSC840948), and staurosporine (NSC755774) were obtained from the National Cancer Institute (NCI) Developmental Therapeutics Program Chemical Repository (34). The FDA-approved anticancer drug set is available from the NCI Developmental Therapeutics Program. […] The stock solutions were prepared in dimethyl sulfoxide (DMSO, Sigma-Aldrich, St. Louis, MO, cat. D2650) at 800-fold the tested concentration and stored at -70 degrees C prior to their use. All drugs and investigational agents were tested over a range starting from a high concentration at or near the clinical Cmax and decreasing in half-log increments. If the clinical Cmax for an agent had not been determined, the highest concentration tested was 10 microM.
# 2.3 Cell Culture. All cells were maintained in an incubator at 37 degrees C and 5% CO2 with 95% humidity. The PDC lines were cultured according to standard operating procedures established by the NCI PDMR. All PDCs were thawed and cultured in Matrigel-coated flasks prepared with a working solution of 1X Ham's F-12 nutrient mix, without supplementation (Invitrogen, cat. 11765054), 100 U/mL penicillin-streptomycin (Invitrogen, cat. 15140122), and 2.5% Matrigel (Corning Inc., cat. 354248) for the first three passages. The 857933-349-R-J2-PDC line was cultured in 6C/Colon 1B media, which includes advanced DMEM/F-12 (Thermo Fisher Scientific, cat. 12634028), 10 mM HEPES (Thermo Fisher Scientific, cat. 15630080), 1X GlutaMAX supplement (Thermo Fisher Scientific, cat. 35050061), 0.1 mg/mL primocin (InvivoGen, cat. ant-pm-2), 10% defined fetal bovine serum, heat inactivated (HyClone Laboratories Inc., cat. SH30070.03HI), 50% L-WRN conditioned media (ATCC, cat. CRL-3276), 1.25 mM N-Acetyl-L-cysteine (Sigma-Aldrich, cat. A9165), 10 mM nicotinamide (Sigma-Aldrich, cat. N0636), 1X B-27 supplement (Thermo Fisher Scientific, cat. 17504044), 1X N-2 supplement (Thermo Fisher Scientific, cat. 17502048), 10 microM Y-27632 dihydrochloride (Tocris Bioscience, cat. 1254), and 50 ng/mL human EGF recombinant protein (Thermo Fisher Scientific, cat. PHG0311). The 485176-168-R4-J1-PDC line was cultured in Panc media, which includes all 6C/Colon 1B media components plus 100 ng/mL human FGF-10 (Thermo Fisher Scientific, cat. 100-26), 500 nM SB-431542 (Selleckchem, cat. S1067), and gastrin (Tocris, cat. 3006).
# […]
# 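Also: spheroids exposed to the agents for seven days before readout.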
# 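For viability, T/C in this document: percent of vehicle control viability with DMSO wells as 100%.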
smiles,measurement,setting,value
CC1COCCN1c1cc(C2(O)CC3CCC(C2)O3)c2cnn(-c3ccn[nH]3)c2n1 (configuration not stated) + Cc1cnc(CNC(=O)c2c(=O)c3ccc(N4CCCN(C)CC4)nc3n3c2sc2ccccc23)cn1,IC50,second compound 0.0316 µM,95.2 nM
same,IC50,second compound 0.1 µM,105 nM
same,IC50,second compound 0.316 µM,48.5 nM
same,IC50,second compound 1 µM,< 31.6 nM
same,IC50,second compound 3.16 µM,< 31.6 nM
same,IC50,second compound 10 µM,< 31.6 nM
same,"viability, T/C","second compound 0.0316 µM, first compound 0.0316 µM",59.8%
same,"viability, T/C","second compound 0.0316 µM, first compound 0.1 µM",48%
same,"viability, T/C","second compound 0.0316 µM, first compound 0.316 µM",42.8%
same,"viability, T/C","second compound 0.0316 µM, first compound 1 µM",24.6%
same,"viability, T/C","second compound 0.0316 µM, first compound 3.16 µM",23.5%
same,"viability, T/C","second compound 0.0316 µM, first compound 10 µM",11.2%
same,"viability, T/C","second compound 0.1 µM, first compound 0.0316 µM",49.5%
same,"viability, T/C","second compound 0.1 µM, first compound 0.1 µM",57.9%
same,"viability, T/C","second compound 0.1 µM, first compound 0.316 µM",38.2%
same,"viability, T/C","second compound 0.1 µM, first compound 1 µM",26.6%
same,"viability, T/C","second compound 0.1 µM, first compound 3.16 µM",22.3%
same,"viability, T/C","second compound 0.1 µM, first compound 10 µM",10.1%
same,"viability, T/C","second compound 0.316 µM, first compound 0.0316 µM",51.5%
same,"viability, T/C","second compound 0.316 µM, first compound 0.1 µM",47.9%
same,"viability, T/C","second compound 0.316 µM, first compound 0.316 µM",37.2%
same,"viability, T/C","second compound 0.316 µM, first compound 1 µM",27.7%
same,"viability, T/C","second compound 0.316 µM, first compound 3.16 µM",18.8%
same,"viability, T/C","second compound 0.316 µM, first compound 10 µM",8.98%
same,"viability, T/C","second compound 1 µM, first compound 0.0316 µM",38.5%
same,"viability, T/C","second compound 1 µM, first compound 0.1 µM",36.1%
same,"viability, T/C","second compound 1 µM, first compound 0.316 µM",23.1%
same,"viability, T/C","second compound 1 µM, first compound 1 µM",15.7%
same,"viability, T/C","second compound 1 µM, first compound 3.16 µM",11.3%
same,"viability, T/C","second compound 1 µM, first compound 10 µM",4.12%
same,"viability, T/C","second compound 3.16 µM, first compound 0.0316 µM",12.3%
same,"viability, T/C","second compound 3.16 µM, first compound 0.1 µM",14.2%
same,"viability, T/C","second compound 3.16 µM, first compound 0.316 µM",6.28%
same,"viability, T/C","second compound 3.16 µM, first compound 1 µM",0.12%
same,"viability, T/C","second compound 3.16 µM, first compound 3.16 µM",0.15%
same,"viability, T/C","second compound 3.16 µM, first compound 10 µM",0.09%
same,"viability, T/C","second compound 10 µM, first compound 0.0316 µM",0.8%
same,"viability, T/C","second compound 10 µM, first compound 0.1 µM",0.14%
same,"viability, T/C","second compound 10 µM, first compound 0.316 µM",0.17%
same,"viability, T/C","second compound 10 µM, first compound 1 µM",0.18%
same,"viability, T/C","second compound 10 µM, first compound 3.16 µM",0.19%
same,"viability, T/C","second compound 10 µM, first compound 10 µM",0.13%
